How the values were obtained:
S492F-CFTR = molecular target: T1, S492F-CFTR (Homo sapiens, UniProt P13569, S492F); test: Short-circuit current in FRT cells expressing S492F-CFTR; assay type: cell-based; conditions: 20 µM forskolin, 5 µM VX-770, 20 µM ASP-11, 3 µM VX-809 for 18–24 h
T1 construct: expressed in transfected cells; host or cells: Fischer rat thyroid (FRT) cells; gift from Drs; Andras Rab and Jeong Hong (Emory University)
Description: (§1) Figure 1 Co-potentiator ASP-11 activity in minimal function CFTR mutants in transfected FRT cells. (A) Structure of ASP-11. (B) Location of minimal function CFTR mutants studied herein. (C) Representative short-circuit current data in FRT cells expressing I1234del-CFTR, Q1313X-CFTR and S492F-CFTR in response to 20 µM forskolin (fsk), 5 µM VX-770, 20 µM ASP-11 and 10 μM CFTRinh-172. As indicated, cells were treated with 3 µM VX-809 for 18–24 h prior to measurements. (n = 3) (D). Representative short-circuit current data in FRT cells expressing predicted W1282X-CFTR read-through products W1282L-CFTR, W1282R-CFTR and W1282C-CFTR (without and with VX-809 pretreatment) (n = 3). MSD, membrane spanning domain; NBD, nucleotide binding domain; R, regulatory domain.
(§2) As shown in Fig. 1C and summarized in Fig. 2, ASP-11 acted in synergy with VX-770 to increase chloride current in FRT cells expressing the NBD2 mutations I1234del- and Q1313X-CFTR by ~3–9-fold compared to VX-770. I1234del- and Q1313X-CFTR-expressing cells were also treated with VX-809 for 24 hours (to consider the effect of available CFTR therapeutics) with 2–3-fold greater currents observed.
Short-circuit current was measured on cells cultured on Snapwell clear permeable supports (Corning) as described[10],[11]. Hemichambers were connected to a DVC-1000 voltage clamp (World Precision Instruments Inc., Sarasota, FL) via Ag/AgCl electrodes and 3 M KCl agar bridges for recording of the short-circuit current. For human airway epithelial cells, symmetrical HCO3^−-buffered solutions (in mM: 120 NaCl, 5 KCl, 1 MgCl2, 1 CaCl2, 5 Hepes, 25 NaHCO3, 10 glucose, pH 7.4) for basolateral and apical side were used. For FRT cells, the basolateral membrane was permeabilized with 250 μg/ml amphotericin B, and experiments were done with a chloride gradient using a HCO3^−-buffered solutions (Basolateral (mM): 120 NaCl, 5 KCl, 1 MgCl2, 1 CaCl2, 5 Hepes, 25 NaHCO3, 10 glucose, pH 7.4; apical (mM): 60 NaCl, 60 mM sodium gluconate, 5 KCl, 1 MgCl2, 1 CaCl2, 5 Hepes, 25 NaHCO3, 10 glucose, pH 7.4). […]

R1162X-CFTR = molecular target: T2, R1162X-CFTR (Homo sapiens, UniProt P13569); test: Short-circuit current in FRT cells expressing R1162X-CFTR; assay type: cell-based; conditions: 5 µM VX-770, 20 µM ASP-11, 3 µM VX-809 overnight
T2 construct: expressed in transfected cells; host or cells: Fischer rat thyroid (FRT) cells; gift from Drs; Andras Rab and Jeong Hong (Emory University)
Description: as §2
(§3) Figure 2 Summary of short-circuit current responses to modulators for CFTR mutants in transfected FRT cells. Responses to indicated CFTR mutants with 20 μM forskolin, 5 µM VX-770, 20 µM ASP-11 (with or without 3 µM VX-809 overnight). For reference, data shown for cells expressing wild type CFTR. Mean ± S.E.M., n = 3.
Short-circuit current was measured on cells cultured on Snapwell clear permeable supports (Corning) as described[10],[11]. Hemichambers were connected to a DVC-1000 voltage clamp (World Precision Instruments Inc., Sarasota, FL) via Ag/AgCl electrodes and 3 M KCl agar bridges for recording of the short-circuit current. For human airway epithelial cells, symmetrical HCO3^−-buffered solutions (in mM: 120 NaCl, 5 KCl, 1 MgCl2, 1 CaCl2, 5 Hepes, 25 NaHCO3, 10 glucose, pH 7.4) for basolateral and apical side were used. For FRT cells, the basolateral membrane was permeabilized with 250 μg/ml amphotericin B, and experiments were done with a chloride gradient using a HCO3^−-buffered solutions (Basolateral (mM): 120 NaCl, 5 KCl, 1 MgCl2, 1 CaCl2, 5 Hepes, 25 NaHCO3, 10 glucose, pH 7.4; apical (mM): 60 NaCl, 60 mM sodium gluconate, 5 KCl, 1 MgCl2, 1 CaCl2, 5 Hepes, 25 NaHCO3, 10 glucose, pH 7.4). All cells were equilibrated with 95% O2, 5% CO2 and maintained at 37 °C during experiments.

R334W-CFTR = molecular target: T3, R334W-CFTR (Homo sapiens, UniProt P13569, R334W); test: Short-circuit current in FRT cells expressing R334W-CFTR; assay type: cell-based; conditions: 20 μM forskolin, 5 µM VX-770, 20 µM ASP-11
T3 construct: expressed in transfected cells; host or cells: Fischer rat thyroid (FRT) cells; gift from Drs; Andras Rab and Jeong Hong (Emory University)
Description: as §2, §3
(§4) Short-circuit current was measured on cells cultured on Snapwell clear permeable supports (Corning) as described[10],[11]. Hemichambers were connected to a DVC-1000 voltage clamp (World Precision Instruments Inc., Sarasota, FL) via Ag/AgCl electrodes and 3 M KCl agar bridges for recording of the short-circuit current. For human airway epithelial cells, symmetrical HCO3^−-buffered solutions (in mM: 120 NaCl, 5 KCl, 1 MgCl2, 1 CaCl2, 5 Hepes, 25 NaHCO3, 10 glucose, pH 7.4) for basolateral and apical side were used. […]

V520F-CFTR = molecular target: T4, V520F-CFTR (Homo sapiens, UniProt P13569, V520F); test: Short-circuit current in FRT cells expressing V520F-CFTR; assay type: cell-based; conditions: 20 μM forskolin, 5 µM VX-770, 20 µM ASP-11
T4 construct: expressed in transfected cells; host or cells: Fischer rat thyroid (FRT) cells; gift from Drs; Andras Rab and Jeong Hong (Emory University)
Description: as §2, §3, §4

R560T-CFTR = molecular target: T5, R560T-CFTR (Homo sapiens, UniProt P13569, R560T); test: Short-circuit current in FRT cells expressing R560T-CFTR; assay type: cell-based; conditions: 20 μM forskolin, 5 µM VX-770, 20 µM ASP-11
T5 construct: expressed in transfected cells; host or cells: Fischer rat thyroid (FRT) cells; gift from Drs; Andras Rab and Jeong Hong (Emory University)
Description: as §2, §3, §4

L1077P-CFTR = molecular target: T6, L1077P-CFTR (Homo sapiens, UniProt P13569, L1077P); test: Short-circuit current in FRT cells expressing L1077P-CFTR; assay type: cell-based; conditions: 20 μM forskolin, 5 µM VX-770, 20 µM ASP-11
T6 construct: expressed in transfected cells; host or cells: Fischer rat thyroid (FRT) cells; gift from Drs; Andras Rab and Jeong Hong (Emory University)
Description: as §2, §3, §4

W1282L-CFTR = molecular target: T7, W1282L-CFTR (Homo sapiens, UniProt P13569, W1282L); test: Short-circuit current in FRT cells expressing W1282L-CFTR; assay type: cell-based; conditions: 20 µM forskolin, 5 µM VX-770, 20 µM ASP-11
T7 construct: introduced into full-length CFTR cDNA in the vector pcDNA3.1/Zeo (+); expressed in transfected cells
Description: as §1
(§5) Compounds that promote read-through of PTCs to generate full-length CFTR have shown limited efficacy in cell culture studies[15]–[17]. Though the read-through drug ataluren (PTC124) was ineffective in clinical trials, newer compounds are in development. We investigated the ability of ASP-11 to activate chloride current in predicted W1282X-CFTR read-through products. […] FRT cell lines were generated that stably expressing W1282L-, W1282C- and W1282R-CFTR.
(§6) Short-circuit current was measured on cells cultured on Snapwell clear permeable supports (Corning) as described[10],[11]. […]

W1282C-CFTR = molecular target: T8, W1282C-CFTR (Homo sapiens, UniProt P13569, W1282C); test: Short-circuit current in FRT cells expressing W1282C-CFTR; assay type: cell-based; conditions: 20 µM forskolin, 5 µM VX-770, 20 µM ASP-11
T8 construct: introduced into full-length CFTR cDNA in the vector pcDNA3.1/Zeo (+); expressed in transfected cells
Description: as §1, §5, §6

N1303K-CFTR = molecular target: T9, N1303K-CFTR (Homo sapiens, UniProt P13569, N1303K); design: method as in PMID 27895116, PMID 29903467; conditions: transfected FRT cells expressing N1303K-CFTR; cited from earlier work
T9 construct: expressed in transfected cells
T9 sequence (P13569 whole entry N1303K): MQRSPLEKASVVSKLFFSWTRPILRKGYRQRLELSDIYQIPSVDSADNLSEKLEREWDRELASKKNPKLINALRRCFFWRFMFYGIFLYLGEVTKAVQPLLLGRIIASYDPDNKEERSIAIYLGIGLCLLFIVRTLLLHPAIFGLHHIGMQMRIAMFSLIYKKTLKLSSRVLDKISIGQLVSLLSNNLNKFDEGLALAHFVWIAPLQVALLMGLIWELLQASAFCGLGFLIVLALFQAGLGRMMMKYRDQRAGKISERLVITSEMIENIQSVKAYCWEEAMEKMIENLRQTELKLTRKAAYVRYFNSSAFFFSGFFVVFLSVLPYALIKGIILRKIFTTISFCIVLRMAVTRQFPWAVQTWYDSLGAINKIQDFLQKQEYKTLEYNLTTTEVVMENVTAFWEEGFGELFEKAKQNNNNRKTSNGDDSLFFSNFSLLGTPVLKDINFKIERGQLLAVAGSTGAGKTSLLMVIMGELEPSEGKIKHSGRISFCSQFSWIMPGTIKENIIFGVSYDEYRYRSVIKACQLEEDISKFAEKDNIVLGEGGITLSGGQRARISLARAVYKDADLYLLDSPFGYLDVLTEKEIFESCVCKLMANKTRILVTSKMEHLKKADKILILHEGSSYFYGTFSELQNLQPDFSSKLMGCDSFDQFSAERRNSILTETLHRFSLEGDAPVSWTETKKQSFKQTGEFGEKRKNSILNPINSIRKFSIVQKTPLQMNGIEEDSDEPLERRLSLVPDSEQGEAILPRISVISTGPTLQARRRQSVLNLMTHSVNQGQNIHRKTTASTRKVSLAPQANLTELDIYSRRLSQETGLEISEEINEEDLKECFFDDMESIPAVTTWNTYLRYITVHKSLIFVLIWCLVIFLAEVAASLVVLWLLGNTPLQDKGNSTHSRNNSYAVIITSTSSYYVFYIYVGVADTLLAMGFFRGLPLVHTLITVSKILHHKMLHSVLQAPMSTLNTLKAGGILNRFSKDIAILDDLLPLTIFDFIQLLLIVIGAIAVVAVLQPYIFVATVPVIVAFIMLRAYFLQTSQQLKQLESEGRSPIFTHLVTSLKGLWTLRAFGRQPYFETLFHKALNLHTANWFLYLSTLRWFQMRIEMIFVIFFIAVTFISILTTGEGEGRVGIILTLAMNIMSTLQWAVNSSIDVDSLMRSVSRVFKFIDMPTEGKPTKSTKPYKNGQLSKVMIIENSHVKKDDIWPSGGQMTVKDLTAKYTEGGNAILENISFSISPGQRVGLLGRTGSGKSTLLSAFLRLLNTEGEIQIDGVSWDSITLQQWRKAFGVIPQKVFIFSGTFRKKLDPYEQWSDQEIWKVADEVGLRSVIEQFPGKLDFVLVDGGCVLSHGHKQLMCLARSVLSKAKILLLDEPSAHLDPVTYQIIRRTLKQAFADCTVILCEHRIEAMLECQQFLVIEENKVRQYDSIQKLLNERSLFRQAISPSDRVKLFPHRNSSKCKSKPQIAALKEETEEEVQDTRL

T7 sequence (P13569 whole entry W1282L): as the sequence (P13569 whole entry N1303K) above, with W1282L, K1303N counted along it
T2 sequence (P13569 1-1161 limits assumed): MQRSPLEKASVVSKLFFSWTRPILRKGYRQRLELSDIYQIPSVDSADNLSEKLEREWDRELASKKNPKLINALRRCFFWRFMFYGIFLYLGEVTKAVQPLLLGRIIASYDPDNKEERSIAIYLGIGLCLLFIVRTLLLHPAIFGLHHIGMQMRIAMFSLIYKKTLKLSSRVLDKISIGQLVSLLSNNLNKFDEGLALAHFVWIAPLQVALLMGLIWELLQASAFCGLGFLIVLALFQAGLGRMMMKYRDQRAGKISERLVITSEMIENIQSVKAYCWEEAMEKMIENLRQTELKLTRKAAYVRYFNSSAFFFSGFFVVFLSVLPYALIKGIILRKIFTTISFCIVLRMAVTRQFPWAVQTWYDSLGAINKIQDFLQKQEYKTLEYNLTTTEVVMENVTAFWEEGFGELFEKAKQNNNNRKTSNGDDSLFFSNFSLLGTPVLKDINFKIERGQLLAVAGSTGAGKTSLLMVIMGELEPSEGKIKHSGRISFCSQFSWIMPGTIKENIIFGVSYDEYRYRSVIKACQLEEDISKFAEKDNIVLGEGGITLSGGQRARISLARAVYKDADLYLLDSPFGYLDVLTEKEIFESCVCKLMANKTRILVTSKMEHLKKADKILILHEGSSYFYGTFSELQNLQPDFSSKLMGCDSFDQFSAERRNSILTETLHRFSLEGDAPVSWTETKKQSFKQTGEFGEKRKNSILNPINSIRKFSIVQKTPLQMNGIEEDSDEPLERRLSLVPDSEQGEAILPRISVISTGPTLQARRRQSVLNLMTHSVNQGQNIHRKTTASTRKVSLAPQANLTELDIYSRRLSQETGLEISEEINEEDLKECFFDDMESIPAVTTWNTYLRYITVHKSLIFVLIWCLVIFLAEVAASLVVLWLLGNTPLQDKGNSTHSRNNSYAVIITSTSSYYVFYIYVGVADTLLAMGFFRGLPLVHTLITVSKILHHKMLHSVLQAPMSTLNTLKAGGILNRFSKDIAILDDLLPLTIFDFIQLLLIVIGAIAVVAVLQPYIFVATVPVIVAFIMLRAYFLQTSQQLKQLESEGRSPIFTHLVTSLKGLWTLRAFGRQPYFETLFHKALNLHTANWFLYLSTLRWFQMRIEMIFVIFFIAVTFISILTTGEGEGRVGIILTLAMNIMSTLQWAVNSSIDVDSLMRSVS
T8 sequence (P13569 whole entry W1282C): as the sequence (P13569 whole entry N1303K) above, with W1282C, K1303N counted along it
T1 sequence (P13569 whole entry S492F): as the sequence (P13569 whole entry N1303K) above, with S492F, K1303N counted along it
T6 sequence (P13569 whole entry L1077P): as the sequence (P13569 whole entry N1303K) above, with L1077P, K1303N counted along it
T3 sequence (P13569 whole entry R334W): as the sequence (P13569 whole entry N1303K) above, with R334W, K1303N counted along it
T5 sequence (P13569 whole entry R560T): as the sequence (P13569 whole entry N1303K) above, with R560T, K1303N counted along it
T4 sequence (P13569 whole entry V520F): as the sequence (P13569 whole entry N1303K) above, with V520F, K1303N counted along it

Row | SMILES | short-circuit current response to modulator (S492F-CFTR) | short-circuit current response to modulator (R1162X-CFTR) | ASP-11 effect on short-circuit current (R334W-CFTR) | ASP-11 effect on short-circuit current (V520F-CFTR) | ASP-11 effect on short-circuit current (R560T-CFTR) | ASP-11 effect on short-circuit current (L1077P-CFTR) | effect on short-circuit current after forskolin (W1282L-CFTR) | effect on short-circuit current after forskolin (W1282C-CFTR) | increase in chloride current over that produced by a high concentration of VX-770 (N1303K-CFTR)
1 | CCCCn1cc(S(=O)(=O)Nc2ccc(CC)cc2)c2cccnc21 [ASP-11] | no response | did not respond | absence of ASP-11 effect | absence of ASP-11 effect | absence of ASP-11 effect | absence of ASP-11 effect | little additional | significant further effects | ~ 8 fold
2 | CC(C)(C)c1cc(C(C)(C)C)c(NC(=O)c2c[nH]c3ccccc3c2=O)cc1O [VX-770, ivacaftor] | no response | did not respond | – | – | – | – | little additional | significant further effects | –

Reference: paper PMC6881293, “Nanomolar-potency ‘co-potentiator’ therapy for cystic fibrosis caused by a defined subset of minimal function CFTR mutants” (Scientific Reports, 2019)
